Biological target: Carboxylic ester hydrolase (Equus caballus, UniProt Q9N1N9)
Assay: BChE Inhibition Assay
Details: pH 7; 25 °C
Description: BChE inhibitions by the carbamate inhibitors were assayed by the Ellman method [Ellman et al., Biochem. Pharm., 7:88-95]. BChE-catalyzed hydrolysis of BTCh in the presence of the carbamate inhibitors and DTNB was followed continuously at 410 nm on a UV-visible spectrometer. The temperature was maintained at 25.0°C by a refrigerated circulating water bath. All inhibition reactions were performed in sodium phosphate buffer (1 mL, 0.1 M, pH 7.0) containing NaCl (0.1 M), acetonitrile (2% by volume), triton X-100 (0.5% by weight), substrate (ATCh for AChE or BTCh for BChE) (50 μM), DTNB, and varying concentrations of inhibitor. Requisite volumes of stock solution of substrateand inhibitors in acetonitrile were injected into the reaction buffer via a pipet. BChE was dissolved in sodium phosphate buffer (0.1 M, pH 7.0).

Sequence of Carboxylic ester hydrolase (Q9N1N9 whole entry): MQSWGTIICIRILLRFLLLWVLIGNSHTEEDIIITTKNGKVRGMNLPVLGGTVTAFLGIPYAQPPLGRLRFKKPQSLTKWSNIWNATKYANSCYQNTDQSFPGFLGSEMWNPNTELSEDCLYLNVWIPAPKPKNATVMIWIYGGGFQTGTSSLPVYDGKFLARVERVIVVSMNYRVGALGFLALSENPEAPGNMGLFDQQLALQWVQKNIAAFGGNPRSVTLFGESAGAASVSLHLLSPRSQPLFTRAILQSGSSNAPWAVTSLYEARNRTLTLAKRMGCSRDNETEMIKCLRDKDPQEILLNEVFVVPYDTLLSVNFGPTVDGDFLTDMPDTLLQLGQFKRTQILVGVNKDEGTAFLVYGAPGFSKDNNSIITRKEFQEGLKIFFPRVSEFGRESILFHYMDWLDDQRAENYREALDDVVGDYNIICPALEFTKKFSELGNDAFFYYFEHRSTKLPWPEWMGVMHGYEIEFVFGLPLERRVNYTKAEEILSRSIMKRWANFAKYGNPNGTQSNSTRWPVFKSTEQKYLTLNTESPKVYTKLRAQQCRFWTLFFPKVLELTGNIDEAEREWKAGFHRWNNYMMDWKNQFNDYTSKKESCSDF

Question: For `CCCCNC(=O)OC1CC2CCC1C2` [(R)-(+)-exo-2-norbonyl-N-n-butylcarbamate], which Ki is on record?
Answer: 11 nM

Question: How did the Ki turn out when `CCCCNC(=O)OC1CC2CCC1C2` [(S)-(-)-endo-2-norbornyl-N-n-butylcarbamate] was run?
Answer: 2 nM

Question: How did the Ki turn out when `CCCCNC(=O)OC1CC2CCC1C2` [(S)-(-)-exo-2-norbonyl-N-n-butylcarbamate] was run?
Answer: 50 nM
